Source: US4402942A, “Oxytocin derivatives” (Ferring AB, priority 1980, dated 1983)

Key:
isolated rat uterus = test: Uterotonic potency on isolated rat uterus with oxytocin as standard; assay type: cell-based; settings: rat in vitro
Experimental: The known compounds 2-O-methyltyrosine-oxytocin and 2-O-ethyltyrosine-oxytocin and a representative compound according to the invention, viz. 1-deamino-(2-O-ethyltyrosine)-oxytocin, was examined with regard to uterotonic potency on isolated rat uterus with use of oxytocin as standard. The antagonistic properties of the compounds were also evaluated with the aid of said preparation, but also in vivo with use of oxytocin as agonist. Moreover, the inhibition of oxytocin effect on isolated human myometrium was examined.
Sprague Dawley rats (body weight approximately 250 g) in natural estrous were selected by vaginal smears. […] Contractions were recorded isometrically at a resting tension of 1.5 g using Grass force transducers (Ft. 03). Antagonistic potency of the analogues was calculated as pA2 values (Rudinger, J. & Krejci, I. Experientia 18, (1962), 585-588). pA2 is a measure of the inhibitory property of the peptide and was defined by Schild (Schild, H. O., British Journal of Pharmacology, 2, (1947), 189-206) as the negative logarithm of the molar concentration of an antagonist which reduces the effect of a dose of agonist to that of half the dose.

[1] = test system: rat uterus preparations stimulated with oxytocin; test: Antagonistic activity (pA2) on rat uterus preparations in vitro stimulated with oxytocin; assay type: cell-based; settings: oxytocin as agonist
Experimental: Sprague Dawley rats (body weight approximately 250 g) in natural estrous were selected by vaginal smears. An approximately 20 mm long segment was cut from the middle of a uterine horn and mounted in an organ bath containing 10 ml of a modified Locke's solution of the following composition (mM:NaCl 153, KCl 5.63, CaCl2 0.541, NaHCO3 5.95 and glucose 2.78). The solution was gassed with 5% CO2 in oxygen at 30° C. The uterine contractions were allowed to stabilize for 30 minutes. Contractions were recorded isometrically at a resting tension of 1.5 g using Grass force transducers (Ft. 03). Antagonistic potency of the analogues was calculated as pA2 values (Rudinger, J. & Krejci, I. Experientia 18, (1962), 585-588). pA2 is a measure of the inhibitory property of the peptide and was defined by Schild (Schild, H. O., British Journal of Pharmacology, 2, (1947), 189-206) as the negative logarithm of the molar concentration of an antagonist which reduces the effect of a dose of agonist to that of half the dose.

[2] = test system: isolated human myometrium (pregnant), oxytocin induced contractions; test: Inhibition of oxytocin induced contractions of isolated uterine tissue from pregnant women; assay type: cell-based; settings: in vitro
Experimental: From 17 patients undergoing caesarean section (week 37-40) a transverse segment of uterine tissue was excised from the isthmic part of the uterus. Tissue pieces were also excised from the ventral side of the uterus of 21 non-pregnant women in fertile age undergoing hysterectomy. The tissue pieces were immediately placed in Krebs-Ringer solution (mM: NaCl 118, KCl 4.6, CaCl2 2.5, MgSO4 1.15, NaHCO3 24.9, KH2 PO4 1.15 and glucose 5.5) at 0° C. and used within two hours after the operation. Segments pieces 25×3×3 mm large were mounted in an organ bath containing 10 ml Krebs-Ringer solution at 37° C. and gassed with 5% CO2 in oxygen. After an adaptation period of 30 minutes contractions were isometrically recorded at a resting tension of 1.25 g. In experiments involving pregnant women use was made of oxytocin (0.013-1.3 μg/ml) as an agonist. Lysinevasopressin (0.07-1.3 μg/ml) was used as an agonist where non-pregnant tissue was tested. A suitable dose of agonist was selected, which gave an effect corresponding to approximately 40% of the maximum effect. The antagonist was used in a concentration of 0.33-1.32 μg/ml. […] The inhibitory effect of the antagonist was measured by planimetry, for 15 minutes after the addition of the peptide, of the total surface of the curve recorded. Inhibition was expressed as a percentage of the effect obtained with the agonist alone.

[3] = test system: uterine contractions caused by infusion of oxytocin; test: Rat in vivo uterine contractions under oxytocin infusion; settings: for complete block of the uterine contraction pattern (oxytocin initiated and spontaneous): dose of 2 μg; for inhibition of the increase of strength of uterine contractions caused by oxytocin infusion: oxytocin 0.05 μg/min/100 g body weight
Experimental: Sprague Dawley rats (250 g) in natural estrous were anaesthetized with Inactin (0.5 mg/100 g body weight i.p.). Myometrial activity was recorded by means of a catheter fixed in the uterine cavity and filled with modified Locke's solution. The catheter was connected to a Statham P23d transducer and contractions were recorded on a Grass polygraph (model 7D). Oxytocin was infused intravenously (0.05 μg/min/100 g body weight). When a regular contraction pattern had been obtained the antagonist (0.8-8.0 μg/100 g body weight) was administered intravenously in a volume of 0.2 ml. The recorded curve was integrated over 10 minute intervals immediately before and after injection of the antagonist.

[4] = test system: oxytocin induced uterine contractions; settings: literature, studies on rats; cited from earlier work
[5] = test system: spontaneous uterine function; settings: Swedish patent 7713/70; cited from earlier work
[6] = Blood pressure after intravenous dose; assay type: in vivo; settings: 30 μg intravenously

Molecule | uterotonic potency (isolated rat uterus) | pA2 (average ± average error) [1] | inhibition of oxytocin induced contractions [2] | complete block of the uterine contraction pattern (oxytocin initiated and spontaneous) [3] | inhibition of the increase of strength of uterine contractions caused by oxytocin infusion [3] | effect on oxytocin induced uterine contractions [4] | effect on the spontaneous uterine function [5] | effect on the blood pressure [6]
2-O-ethyltyrosine-oxytocin | 1-2 IU/mg | 7.13 ± 0.09 | a significant inhibition was obtained, which was however considerably lower than with use of the compound according to the invention | lack this ability | dose dependent reversible inhibition | antagonistic effect |  | 
N^α -acetyl-2-O-methyltyrosine-oxytocin |  |  |  |  |  | antagonistic effect | no effect on the spontaneous uterine function | 
[1-deaminopenicillamine,2-O-methyltyrosine]oxytocin |  |  |  |  |  | antagonistic effect |  | 
2-O-methyltyrosine-oxytocin | 1-2 IU/mg | 6.68 ± 0.12 |  | lack this ability | dose dependent reversible inhibition | antagonistic effect |  | 
CCOc1ccc(C[C@@H]2NC(=O)CCSSC[C@@H](C(=O)N3CCC[C@H]3C(=O)N[C@@H](CC(C)C)C(=O)NCC(N)=O)NC(=O)[C@H](CC(N)=O)NC(=O)[C@H](CCC(N)=O)NC(=O)[C@H]([C@@H](C)CC)NC2=O)cc1 [1-deamino-2-O-ethyltyrosine-oxytocin] |  | 7.19 ± 0.10 |  |  |  |  |  | no effect at all on the blood pressure
